# Data taken from patent US12226409B2, “Treatment of hepatocellular carcinoma” (Eisai R&D Management Co., Ltd., priority 2017, dated 2025).
# Assays:
# unresectable HCC = experiment: Open-label phase 3 noninferiority study, efficacy (tumor assessment by mRECIST); type: in vivo, human
# Description: The primary endpoint was overall survival.
# Patients who were eligible for enrollment had unresectable HCC with diagnosis confirmed histologically or cytologically or with diagnosis confirmed clinically in accordance with the American Association for the Study of Liver Diseases criteria. Included patients also had ≥1 measureable target lesion, based on modified Response Evaluation Criteria in Solid Tumors (Lencioni 2010); Barcelona Clinic Liver Cancer stage B or C categorization (Bruix Hepatology 2011); Child-Pugh class A; and Eastern Cooperative Oncology Group performance status ≤1. All eligible patients had controlled blood pressure (≤150/90 mm Hg), and adequate organ function. Patients with ≥50% liver occupation, clear bile duct invasion, or portal vein invasion at the main portal vein were excluded. Patients also were excluded if that had received prior systemic therapy for HCC.
# Tumors were evaluated in accordance with mRECIST (Lencioni R., Semin Liver Dis., 30(1):52-60, 2010); RECIST 1.1 was applied for nonhepatic lesions (Eisenhauer, Eur J Cancer, 45(2):228-47, 2009). The liver was examined with computed tomography or magnetic resonance imaging was performed using a triphasic scanning technique. Assessments were performed every 8 weeks until disease progression. Quality of life questionnaires were administered at baseline, on day 1 of each subsequent treatment cycle, and at the off-treatment visit.
# The primary endpoint of overall survival was first tested for noninferiority then for superiority. The required number of events for the primary analysis was 700 deaths, based on the fill analysis set. The HR and its 95% confidence interval (CI) were estimated from a Cox proportional hazard model with treatment group as a factor and with the analysis stratified according to the same factors applied for randomization.
# A fixed-sequence procedure was followed to control the overall type I error rate of analyses for both the primary and secondary efficacy endpoints at α=0.05 (2-sided). After noninferiority was declared, secondary efficacy endpoints were tested. Differences in progression-free survival and time to progression were evaluated using a stratified log-rank test with randomization stratification factors, with the associated HR and its 95% CI. A difference in the objective response rate was evaluated using the Cochran-Mantel-Haenszel chi-square test with randomized stratification factors as strata, with associated odds ratio and its 95% CI. To assess futility, 2 interim analyses (at 30% and 70% of the target number of events) were performed using Bayesian predictive probability in a noninferiority design by the independent data monitoring committee.
# [1] = tested on: lenvatinib-treated subjects; experiment: Clinical studies with lenvatinib, posterior reversible encephalopathy syndrome; conditions: human, in vivo
# Description: Mild to severe hypertension also could be present. A magnetic resonance imaging (MRI) was necessary to confirm the diagnosis of PRES. In subjects with signs or symptoms of PRES, appropriate measures were to be taken to control blood pressure, and instructions in Table 6 were followed.
# CYP3A4 = target: T1, CYP3A4 (Homo sapiens, UniProt P08684); experiment: Drug interaction with midazolam (CYP3A4 substrate); conditions: projected
# T1 construct: from tissue; host or cells: human subjects (in vivo)
# CYP2C9 = CYP2C9 (Homo sapiens, UniProt P11712); experiment: In vitro CYP inhibition; type: in vitro ADME
# CYP2C19 = CYP2C19 (Homo sapiens, UniProt P33261); experiment: In vitro CYP inhibition; type: in vitro ADME
# CYP2D6 = CYP2D6 (Homo sapiens, UniProt P10635); experiment: In vitro CYP inhibition; type: in vitro ADME
# CYP3A [2] = experiment: In vitro CYP inhibition; type: in vitro ADME
# CYP3A [3] = experiment: In vitro CYP induction; type: in vitro ADME
# [4] = tested on: patients with unresectable HCC; conditions: human, in vivo
# Description: Randomization was stratified according to region (Asia-Pacific or Western regions), macroscopic portal vein invasion and/or extrahepatic spread (yes or no), Eastern Cooperative Oncology Group performance status (0 or 1), and body weight (<60 kg or ≥60 kg).
# Safety assessments included recording of vital signs, hematologic and biochemical laboratory testing, urinalysis, and electrocardiography.
# Sequence of CYP2D6 (P10635 whole entry): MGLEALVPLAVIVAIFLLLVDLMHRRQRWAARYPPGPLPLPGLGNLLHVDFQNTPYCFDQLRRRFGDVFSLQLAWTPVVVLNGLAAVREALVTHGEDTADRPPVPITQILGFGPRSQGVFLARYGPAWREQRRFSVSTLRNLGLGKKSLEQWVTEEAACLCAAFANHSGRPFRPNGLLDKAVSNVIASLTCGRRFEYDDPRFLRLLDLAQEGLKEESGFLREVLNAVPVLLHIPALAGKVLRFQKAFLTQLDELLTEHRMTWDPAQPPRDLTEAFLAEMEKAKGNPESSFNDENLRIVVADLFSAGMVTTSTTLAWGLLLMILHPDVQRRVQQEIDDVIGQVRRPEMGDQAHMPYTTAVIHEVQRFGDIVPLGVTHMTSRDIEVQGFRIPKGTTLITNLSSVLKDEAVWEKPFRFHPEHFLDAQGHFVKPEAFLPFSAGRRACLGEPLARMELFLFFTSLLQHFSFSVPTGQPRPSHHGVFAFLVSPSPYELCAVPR
# T1 sequence (P08684 whole entry): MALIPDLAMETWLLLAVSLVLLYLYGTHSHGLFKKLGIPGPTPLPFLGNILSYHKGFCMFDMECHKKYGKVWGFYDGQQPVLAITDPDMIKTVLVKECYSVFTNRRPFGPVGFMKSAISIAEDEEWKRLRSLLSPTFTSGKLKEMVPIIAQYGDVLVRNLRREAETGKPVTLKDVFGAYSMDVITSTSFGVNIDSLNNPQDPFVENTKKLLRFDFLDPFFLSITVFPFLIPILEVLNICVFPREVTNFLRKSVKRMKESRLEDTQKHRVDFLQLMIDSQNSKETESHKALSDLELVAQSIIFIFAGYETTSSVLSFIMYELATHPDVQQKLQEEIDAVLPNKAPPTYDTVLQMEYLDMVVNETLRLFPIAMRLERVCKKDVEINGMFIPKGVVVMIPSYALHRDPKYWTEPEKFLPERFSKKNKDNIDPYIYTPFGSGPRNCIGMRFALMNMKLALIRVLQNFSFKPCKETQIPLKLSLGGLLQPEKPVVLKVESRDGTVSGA
# Sequence of CYP2C19 (P33261 whole entry): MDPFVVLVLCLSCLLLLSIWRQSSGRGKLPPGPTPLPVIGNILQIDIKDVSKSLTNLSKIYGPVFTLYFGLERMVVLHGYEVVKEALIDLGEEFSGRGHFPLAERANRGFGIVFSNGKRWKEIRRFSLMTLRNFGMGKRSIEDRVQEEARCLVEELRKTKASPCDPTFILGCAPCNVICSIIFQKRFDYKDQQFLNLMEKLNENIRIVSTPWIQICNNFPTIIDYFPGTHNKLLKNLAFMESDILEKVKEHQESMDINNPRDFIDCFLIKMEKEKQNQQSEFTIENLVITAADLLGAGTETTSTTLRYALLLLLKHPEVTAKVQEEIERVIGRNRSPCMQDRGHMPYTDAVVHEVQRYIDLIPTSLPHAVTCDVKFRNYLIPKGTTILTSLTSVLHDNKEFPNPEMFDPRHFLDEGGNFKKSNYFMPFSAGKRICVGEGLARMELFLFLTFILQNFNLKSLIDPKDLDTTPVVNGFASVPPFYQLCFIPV
# Sequence of CYP2C9 (P11712 whole entry): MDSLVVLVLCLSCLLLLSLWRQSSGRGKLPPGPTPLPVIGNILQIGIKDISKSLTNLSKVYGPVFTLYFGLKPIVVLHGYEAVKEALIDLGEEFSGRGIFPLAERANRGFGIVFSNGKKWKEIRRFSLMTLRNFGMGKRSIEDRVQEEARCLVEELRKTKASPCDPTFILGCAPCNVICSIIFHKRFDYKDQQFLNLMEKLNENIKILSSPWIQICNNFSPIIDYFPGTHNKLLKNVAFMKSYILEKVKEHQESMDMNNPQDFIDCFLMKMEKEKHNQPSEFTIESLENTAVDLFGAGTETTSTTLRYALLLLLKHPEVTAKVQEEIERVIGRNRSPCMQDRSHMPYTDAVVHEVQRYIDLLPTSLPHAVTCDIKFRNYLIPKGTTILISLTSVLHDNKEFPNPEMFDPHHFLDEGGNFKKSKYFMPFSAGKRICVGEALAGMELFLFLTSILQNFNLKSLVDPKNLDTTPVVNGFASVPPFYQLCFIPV
compound,measurement,setting,value
"COc1cc2nccc(Oc3ccc(NC(=O)NC4CC4)c(Cl)c3)c2cc1C(N)=O [Lenvatinib, 4-(3-chloro-4(cyclopropylaminocarbonyl)aminophenoxy)-7-methoxy-6-quinolinecarboxamide]",Primary reason for discontinuation of treatment: Disease Progression,unresectable HCC; Full Analysis Set,311 (65.1) n (%)
same,Durable stable disease lasting ≥23 wk,unresectable HCC; in vivo,167 no.
same,Median overall survival,unresectable HCC; in vivo,13.6 mo
same,Median progression-free survival,unresectable HCC; mRECIST,7.4 mo
same,Median time to progression,unresectable HCC; mRECIST,8.9 mo
same,events of posterior reversible encephalopathy syndrome (PRES),[1],less than 1%
same,drug-drug interaction risk with midazolam,CYP3A4,no projected significant drug-drug interaction risk
same,inhibition of CYP2C9,CYP2C9,inhibits
same,inhibition of CYP2C19,CYP2C19,inhibits
same,inhibition of CYP2D6,CYP2D6,inhibits
same,inhibition of CYP3A,CYP3A [2],inhibits
same,induction of CYP3A,CYP3A [3],induces
same,treatment-related fatal cerebral hemorrhage,[4],3 patients
same,treatment-related fatal hepatic failure,[4],3 patients
same,treatment-related fatal respiratory failure,[4],2 patients
